Patent publication US7335770B2, “Triazine compounds and their analogs, compositions, and methods” (Reddy U5 Therapeutics, Inc., priority 2004, dated 2008)
Counter-ions that a name gives are not always drawn.

What was measured:
[1] = tested on: smooth muscle cells (SMC); test: anti-proliferation assay (perlecan); assay type: cell-based; conditions: using the same activity scale used in Table 3
Method in brief: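 Compounds are added to smooth muscle cells in growth or serum-free medium. The change in proliferation is measured, e.g. by labelled-nucleotide incorporation into DNA, against untreated cells; IC50 values are given as activity bins.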

IL6 = test: inhibition of TNF-induced IL6 production; assay type: cell-based; conditions: for IC50: given as '50% at x μM', read-out: Inhibition of TNF-induced IL6 production: concentration giving 50% inhibition
MCP1 = test: inhibition of TNF-induced MCP1; assay type: cell-based; conditions: for IC50: in vitro
Procedure: (§1) The activity of the compounds of the present invention in inhibiting glycated protein- and AGE-induced inflammation can be determined using the assays described herein and in U.S. patent application Ser. No. 10/026,335, which is herein incorporated in its entirety. Such assays comprise measurement of the specific activity of biological components involved in a known cellular response. The assays provide a measurable response in which the activity of the compounds is determined. One assay comprises measurement of the effects of compounds on an inflammatory response by cells to the presence of a stimulating agent. Yet another assay comprises endothelial cells that are stimulated by the addition of a glycated protein, the stimulating agent. The endothelial cells respond by producing specific cytokines. The amount of cytokines produced are determined by measurement protocols known to those skilled in the art. The compounds of the present invention are then added to the assay and the production of cytokines is measured. From the comparison of the assay without the compound with the assay with the compound, the biological effect of the compound can be determined. The compound may have an inhibitory effect, a stimulatory effect, or no effect at all.
The amount and type of cytokine produced can be determined using immunological methods, such as ELISA assays. The methods of the present invention are not limited by the type of assay used to measure the amount of cytokine produced, and any methods known to those skilled in the art and later developed can be used to measure the amount of cytokines produced in response to the stimulating agent and to the compound having unknown activity.
(§2) Assays for determining the activity of compounds capable of modulating inflammation include those taught in U.S. patent application Ser. No. 10/026,335 and 09/969,013, which are both expressly incorporated by reference. In general, once the baseline response to the stimulating agent for the production of cytokines by the endothelial cells is established, thus comprising the control levels for the screening assay, the methods comprise addition of compounds of the present invention. The effect of the compound on the baseline response is determined by comparing the amount of cytokine produced in the presence of the stimulating agent and the amount of cytokine produced in the presence of the stimulating agent and the compound of the present invention. In a preferred method, compounds that have inhibitory effects on the inflammation of the cells in the presence of glycated albumin are then used as therapeutic agents. One or more compounds may be added to the screening assay. Combinations or mixtures of compounds can be added. Different amounts and formulations of the compounds are added to determine the effects on the screening assay. The screening assay may also be used to determine stimulatory compounds or compounds that have no effects in the assay.

VCAM1 = test: inhibition of TNF-induced VCAM1; assay type: cell-based; conditions: for IC50: in vitro
Procedure: as §1
An aspect of the present invention comprises methods and compositions for the treatment of diseases, preconditions or pathologies associated with inflammatory cytokines and other inflammation related molecules including, but not limited to IL-6, VCAM-1, AGE-induced MCP-1, (monocyte chemoattractant protein 1), heme oxygenase, insulin-like growth factor, selectins, IP-10, MIG and I-TAC, NF-κB, IL-1β (interleukin 1β), IL-11 (interleukin 11), m-CSF (macrophage colony stimulating factor), fibrinogen, TNF-α (tumor necrosis factor α), adhesion molecules, selecting, VCAM-1 (Vascular Cell Adhesion Molecule-1), CRP (C-reactive protein), and PAI-1 (plasminogen activator inhibitor-1). Examples of such diseases include the pathogenesis of atherosclerosis and the development of diabetic vasculopathy in type II diabetes. For example, affecting the activity or level of TNFα is a key mediator of tissue damage following acute or chronic inflammatory reactions. The present invention contemplates providing compositions and methods that modulate the effects of cytokines and inflammatory molecules such as TNFα, IL-6, VCAM-1, IP-10, MIG, I-TAC and AGE-induced MCP-1, and treat the associated diseases, acute or chronic conditions, preconditions and pathologies.
as §2

Row | Structure (SMILES) | IC50 (MCP1) [µM] | IC50 (VCAM1) [µM] | IC50 (IL6) [µM] | also measured
1 | COc1ccc(Oc2nc(Oc3ccc(OC)c(F)c3)nc(Oc3ccc(OC)c(F)c3)n2)cc1F [2,4,6-Tris-(3-fluoro-4-methoxy-phenoxy)-[1,3,5]triazine] |  |  |  | melting point: > 210 °C; activity in anti-proliferation assay (Perlecan), in words [1]: high activity
2 | COc1ccc(Nc2nc(NCC3CCCO3)nc(NC3CCCCCC3)n2)cc1Cl (stereo not shown) [Example 37, N-(3-Chloro-4-methoxy-phenyl)-N′-cycloheptyl-N″-(tetrahydro-furan-2-ylmethyl)-[1,3,5]triazine-2,4,6-triamine] |  |  |  | melting point: 77 °C
3 | COc1ccc(Nc2nc(NCCNC(=O)OC(C)(C)C)nc(NC3CCCCCC3)n2)cc1Cl [Example 39, {2-[4-(3-Chloro-4-methoxy-phenylamino)-6-cycloheptylamino-[1,3,5]triazin-2-ylamino]-ethyl}-carbamic acid tert-butyl ester] |  |  |  | melting point: 94 °C
4 | COc1ccc(Nc2nc(NCCN)nc(NC3CCCCCC3)n2)cc1Cl [Example 40, N-(2-Amino-ethyl)-N′-(3-chloro-4-methoxy-phenyl)-N″-cycloheptyl-[1,3,5]triazine-2,4,6-triamine] |  |  |  | melting point: 77 °C
5 | COc1ccc(Nc2nc(NCCNC(=O)OC(C)(C)C)nc(NC3CCCCCC3)n2)cc1Cl [drawing 602, {2-[4-(3-Chloro-4-meth-oxy-phenylamino)-6-cyclo-heptylamino-[1,3,5]triazin-2-ylamino]-eth-yl}-carbamic acid tert-butyl ester] |  |  | 15 | 
6 | COc1ccc(Nc2nc(NCCN)nc(NC3CCCCCC3)n2)cc1Cl [drawing 603, N-(2-Amino-eth-yl)-N′-(3-chloro-4-methoxy-phe-nyl)-N″-cycloheptyl-[1,3,5]triazine-2,4,6-tri-amine] |  |  | 2.7 | 
7 | CCN1CCCC1CNc1nc(Nc2ccc(C)c(F)c2)nc(NC2CCCCCC2)n1 (stereo not shown) [drawing 604, N-Cycloheptyl-N′-(1-ethyl-pyrrolidin-2-yl-methyl)-N″-(3-fluoro-4-meth-yl-phenyl)-[1,3,5]tri-azine-2,4,6-triamine] |  |  | 3.3 | 
8 | Cc1ccc(Nc2nc(NC3CCCCCC3)nc(N(C)C3CCN(C)CC3)n2)cc1F [drawing 605, N-Cycloheptyl--N′-(3-fluoro-4-methyl-phenyl)-N″-meth-yl-N″-(1-methyl-piperidin-4-yl)-[1,3,5]tri-azine-2,4,6-triamine] |  |  | 3.6 | 
9 | CN1CCC(N(C)c2nc(Nc3cccc([N+](=O)[O-])c3)nc(NC3CCCCCC3)n2)CC1 [drawing 606, N-Cycloheptyl-N′-methyl-N′-(1-methyl-piper-idin-4-yl)-N″-(3-nitro-phenyl)-[1,3,5]tri-azine-2,4,6-triamine] |  |  | 3.3 | 
10 | CCN1CCCC1CNc1nc(Nc2ccc(OCc3ccccc3)c(Cl)c2)nc(NC2CCCCCC2)n1 (stereo not shown) [drawing 607, N-(4-Benzyloxy-3-chloro-phenyl)-N′-cyclo-heptyl-N″-(1-ethyl-pyrrolidin-2-yl-methyl)-[1,3,5]triazine-2,4,6-triamine] |  |  | 1.1 | 
11 | COc1ccc(Oc2nc(Oc3ccc(OC)c(F)c3)nc(Oc3ccc(OC)c(F)c3)n2)cc1F [drawing 608, 2,4,6-Tris-(3-fluoro-4-meth-oxy-phenoxy)-[1,3,5]triazine] |  |  |  | inhibition at 10 µM (IL6): 5%
12 | COc1ccc(Nc2nc(NCCCCCNC(=O)CCCCC3SCC4NC(=O)NC43)nc(NC3CCCCCC3)n2)cc1Cl (stereo not shown) [drawing 609, 5-(2-Oxo-hexahydro-thieno[3,4-d]imi-dazol-4-yl)-pentanoicacid {5-[4-(3-chloro-4-methoxy-phenylamino)-6-cycloheptylamino-[1,3,5]tri-azin-2-ylamino]-pentyl}-amide] |  |  | 5 | 
13 | COc1ccc(Nc2nc(NC3CCCCCC3)nc(NC3CCN(C(=O)CCCCC4SCC5NC(=O)NC54)CC3)n2)cc1Cl (stereo not shown) [drawing 610] |  |  | 19 | 
14 | CN1CCC(N(C)c2nc(Nc3cccc(F)c3)nc(NC3CCCCCC3)n2)CC1 [drawing 612, N-Cyclo-heptyl-N′-(3-fluoro-phenyl)-N″-meth-yl-N″-(1-methyl-piperidin-4-yl)-[1,3,5]tri-azine-2,4,6-triamine] |  |  | 3.2 | 
15 | CCN1CCCC1CNc1nc(Nc2ccc(OC)c(F)c2)nc(N2CCN(CC(=O)N3CCCC3)CC2)n1 (stereo not shown) [drawing 613, 2-{4-[4-[(1-Ethyl-pyrrolidin-2-ylmethyl)-amino]-6-(3-fluoro-4-meth-oxy-phenylamino)-[1,3,5tri-azin-2-yl]-pipera-zin-1-yl}-1-pyrrolidin-1-yl-eth-anone dihydrogen chloride salt] |  |  |  | inhibition at 10 µM (IL6): 42%
16 | COc1ccc(Nc2nc(NC3CCCCCC3)nc(Sc3c(Cl)cccc3Cl)n2)cc1Cl [drawing 631] |  |  |  | inhibition at 10 µM (MCP1; @ 10 uM concentration, read-out: TNF-induced MCP1, In-vitro % of inhibition): 11%; inhibition at 10 µM (VCAM1; @ 10 uM concentration, read-out: TNF-induced VCAM1, In-vitro % of inhibition): 6%

Continued, in another order:

Row | IC50 (MCP1) [µM] | IC50 (VCAM1) [µM] | Structure (SMILES) | IC50 (IL6) [µM] | also measured
17 | 3 | 2.5 | COc1ccc(Nc2nc(NC3CCCCCC3)nc(OCC3CCCN3C)n2)cc1Cl (stereo not shown) [drawing 614] |  | 
18 | 4.3 | 4.5 | COc1ccc(Nc2nc(NC3CCCCCC3)nc(OC3CCN(C)CC3)n2)cc1Cl [drawing 615] |  | 
19 | 4.6 | 5.2 | COc1ccc(Nc2nc(NC3CCCCCC3)nc(OC3CCCN(C(C)=O)C3)n2)cc1Cl (stereo not shown) [drawing 617] |  | 
20 | 3.7 | 7 | COc1ccc(Nc2nc(NC3CCCCCC3)nc(Oc3ccc(C#CC(C)(C)O)cc3)n2)cc1Cl [drawing 620] |  | 
21 | 6.5 | 7 | COc1ccc(Nc2nc(NC3CCCCCC3)nc(Oc3ccccc3C#CC(C)(C)O)n2)cc1Cl [drawing 621] |  | 
22 | 4.2 | 6 | CCN1CCCC(Oc2nc(Nc3ccc(OC)c(Cl)c3)nc(NC3CCCCCC3)n2)C1 (stereo not shown) [drawing 622] |  | 
23 | 6 | 5.2 | COc1ccc(Nc2nc(NC3CCCCCC3)nc(Oc3ccc(C=O)cc3)n2)cc1Cl [drawing 623] |  | 
24 | 3 | 5.7 | COc1ccc(Nc2nc(NC(C)C)nc(Oc3ccc(C#CC(C)(C)O)cc3)n2)cc1Cl [drawing 627] |  | 
